Laboratory results published in patent US5914319A, “Antithrombotic agents” (Eli Lilly and Company, priority 1995, dated 1999).
Where a name gives a salt, the structure may show the parent alone.

Legend:
Type in all cases: biochemical
Human plasma [1] = assay: Human plasma anticoagulation, prothrombin time (PT); details: concentration required to double the PT, linear extrapolation
Description: (§1) Dog plasma and rat plasma is obtained from conscious mixed-breed hounds (either sex, Hazelton-LRE, Kalamazoo, Mich., U.S.A.) or from anesthetized male Sprague-Dawley rats (Harlan Sprague-Dawley, Inc., Indianapolis, Ind., U.S.A.) by venipuncture into 3.8 percent citrate. Fibrinogen is prepared from in-date ACD human blood as the fraction I-2 according to previous procedures and specifications. […] Human fibrinogen is also purchased as 98 percent pure/plasmin free from American Diagnostica, Greenwich, Conn. Coagulation reagents ACTIN, Thromboplastin, and Human plasma are from Baxter Healthcare Corp., Dade Division, Miami, Fla. Bovine thrombin from Parke-Davis ([…], Mich.) is used for coagulation assays in plasma.
(§2) Coagulation assay procedures are as previously described. […] A CoAScreener coagulation instrument (American LABor, Inc.) is used for all coagulation assay measurements. The prothrombin time (PT) is measured by adding 0.05 mL saline and 0.05 mL Thromboplastin-C reagent to 0.05 mL test plasma. The activated partial thromboplastin time (APTT) is measured by incubation of 0.05 mL test plasma with 0.05 mL Actin reagent for 120 seconds followed by 0.05 mL CaCl2 (0.02M). The thrombin time (TT) is measured by adding 0.05 mL saline and 0.05 mL thrombin (10 NIH units/mL) to 0.05 mL test plasma. The compounds of Formula I are added to human or animal plasma over a wide range of concentrations to determine prolongation effects on the APTT, PT, and TT assays. Linear extrapolations are performed to estimate the concentrations required to double the clotting time for each assay.

Human plasma [2] = assay: Human plasma anticoagulation, thrombin time (TT); details: concentration required to double the thrombin time, linear extrapolation
Description: as §1, §2

Human plasma [3] = assay: Human plasma anticoagulation, activated partial thromboplastin time (APTT); details: concentration required to double the APTT, linear extrapolation
Description: as §1, §2

| Structure (SMILES) | Human Plasma Anticoagulation 2× Clotting time (ng/mL) PT (Human plasma [1]) | Human Plasma Anticoagulation 2× Clotting time (ng/mL) TT (Human plasma [2]) | Human Plasma Anticoagulation 2× Clotting time (ng/mL) APTT (Human plasma [3]) |
| --- | --- | --- | --- |
| CCS(=O)(=O)N[C@H](Cc1ccccc1)C(=O)N1CCC[C@H]1C(=O)NCCCc1ccc(C(=N)N)cc1 [Example 30, EtSO2 -D-Phe-Pro-p-NHCH2 CH2 CH2 --C6 H4 C(=NH)NH2.HCl] | 14,400 ng/mL | 1,000 ng/mL | 14,000 ng/mL |
| CCS(=O)(=O)N[C@H](Cc1ccccc1)C(=O)N1CCC[C@H]1C(=O)NCCCc1cccc(C(=N)N)c1 [Example 31, EtSO2 -D-Phe-Pro-m-NHCH2 CH2 CH2 --C6 H4 C(=NH)NH2.HCl] | 30,000 ng/mL | 10,800 ng/mL | 34,500 ng/mL |
| Cl.N=C(N)c1ccc(CCCNC(=O)C2CCCN2C(=O)C2NCCC3CCCCC32)cc1 (stereo not drawn) [Example 32, 1-Piq-Pro-p-NHCH2 CH2 CH2 --C6 H4 C(=NH)NH2.HCl] | 47,800 ng/mL | 3,100 ng/mL | 28,500 ng/mL |
| N=C(N)c1cccc(CCCNC(=O)[C@@H]2CCCN2C(=O)[C@@H]2NCC[C@@H]3CCCC[C@@H]32)c1 [Example 33, 1-Piq-Pro-m-NHCH2 CH2 CH2 --C6 H4 C(=NH)NH2.HCl] | 70,900 ng/mL | 18,900 ng/mL | 59,300 ng/mL |
| CCS(=O)(=O)N[C@H](Cc1ccccc1)C(=O)N1CCC[C@H]1C(=O)NCc1ccc(NC(=N)N)cc1 [Example 34, EtSO2 -D-Phe-Pro-p-NHCH2 C6 H4 NHC(NH)NH2.HCl] | 5,500 ng/mL | 530 ng/mL | 4,900 ng/mL |
| CCS(=O)(=O)N[C@H](Cc1ccccc1)C(=O)N1CCC[C@H]1C(=O)NCc1cccc(NC(=N)N)c1 [Example 36, EtSO2 -D-Phe-Pro-m-NHCH2 C6 H4 NHC(NH)NH2.HCl] | > 91,000 ng/mL | 7,700 ng/mL | > 91,000 ng/mL |
| CCS(=O)(=O)N[C@H](Cc1ccccc1)C(=O)N1CCC[C@H]1C(=O)NCCc1cccc(N=C(N)N)c1.Cl [Example 37, EtSO2 -D-Phe-Pro-m-NHCH2 CH2 C6 H4 NHC(NH)NH2.HCl] | > 9,000 ng/mL | > 9,000 ng/mL | > 9,000 ng/mL |
| N=C(N)Nc1ccc(CNC(=O)[C@@H]2CCCN2C(=O)[C@@H]2NCC[C@@H]3CCCC[C@@H]32)cc1 [Example 38, D-1-Piq-Pro-p-NHCH2 C6 H4 NHC(NH)NH2.2HCl] | 11,100 ng/mL | 540 ng/mL | 6,100 ng/mL |
| N=C(N)Nc1ccc(CCNC(=O)[C@@H]2CCCN2C(=O)[C@@H]2NCC[C@@H]3CCCC[C@@H]32)cc1 [Example 39, D-1-Piq-Pro-p-NHCH2 CH2 C6 H4 NHC(NH)NH2.2HCl] | 78,600 ng/mL | 5,300 ng/mL | 69,200 ng/mL |
| N=C(N)Nc1cccc(CNC(=O)[C@@H]2CCCN2C(=O)[C@@H]2NCC[C@@H]3CCCC[C@@H]32)c1 [Example 40, D-1-Piq-Pro-m-NHCH2 C6 H4 NHC(NH)NH2.2HCl] | > 91,000 ng/mL | 35,100 ng/mL | > 91,000 ng/mL |
| N=C(N)Nc1cccc(CCNC(=O)[C@@H]2CCCN2C(=O)[C@@H]2NCC[C@@H]3CCCC[C@@H]32)c1 [Example 41, D-1-Piq-Pro-m-NHCH2 CH2 C6 H4 NHC(NH)NH2.2HCl] | > 91,000 ng/mL | 82,200 ng/mL | > 91,000 ng/mL |
| Cl.N=C(N)c1ccc(CNC(=O)C2CC3CCCCC3N2C(=O)C(CC2CCCCC2)NCC(=O)O)cc1 [Example 49, HOOCCH2 -D-Cha-cis-Ohi-p-NHCH2 C6 H4 C(NH)NH2.HCl] | 130 ng/mL | 5 ng/mL | 130 ng/mL |
| Cl.Cl.N=C(N)c1ccc(CNC(=O)[C@@H]2CCCN2C(=O)[C@H](N)CC2CCCCC2)cc1 [Example 51, D-Cha-Pro-p-NHCH2 C6 H4 C(NH)NH2.2HCl] | 110 ng/mL | 2 ng/mL | 48 ng/mL |
| Cl.N=C(N)c1ccc(CNC(=O)[C@@H]2CCCN2C(=O)[C@@H](CC2CCCCC2)NCCC(=O)O)cc1 [Example 52, HOOCCH2 CH2 -D-Cha-Pro-p-NHCH2 C6 H4 C(NH)NH2.HCl] | 170 ng/mL | 6 ng/mL | 80 ng/mL |
| O=C(O)CN[C@H](CC1CCCCC1)C(=O)N1CCC[C@H]1C(=O)NCC1CCNCC1 [Example 53, HO2 CCH2 -D-Cha-Pro-4-NHCH2 -piperidine.HCl] | 34,500 ng/mL | 1,400 ng/mL | 33,800 ng/mL |
| Cl.O=C(O)CNC(CC1CCCCC1)C(=O)N1CCCC1C(=O)NCCC1CCNCC1 [Example 54, HO2 CCH2 -D-Cha-Pro-4-NHCH2 CH2 -piperidine.HCl] | 2,200 ng/mL | 140 ng/mL | 3,300 ng/mL |
| O=C(O)CN[C@H](CC1CCCCC1)C(=O)N1CCC[C@H]1C(=O)NCCCC1CCNCC1 [Example 55, HO2 CCH2 -D-Cha-Pro-4-NHCH2 CH2 CH2 -piperidine.HCl] | > 91,000 ng/mL | 55,800 ng/mL | > 91,000 ng/mL |
| Cl.N=C(N)N1CCC(CNC(=O)[C@@H]2CCCN2C(=O)[C@@H](CC2CCCCC2)NCC(=O)O)CC1 [Example 56, HO2 CCH2 -D-Cha-Pro-4-NHCH2 -1-amidinopiperidine.HCl] | 200 ng/mL | 5 ng/mL | 160 ng/mL |
